Read-outs that look alike come from different tables or passages of the source. Values belong to the molecule of their own block, whether it stands above or below them.
Experiments:
[1] = tested on: NUGC-3_P53_Luc single clonal cell line (p53 Y220C); assay: Reporter gene assay (p53 RE luciferase); format: cell-based; details: luciferase reporter, 6 hours, normalized to Ref-1a (10 μM) high control, read-out: p53(Y220C)_NUGC-3 EC50
Summary of the method: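 Luminescence normalised to DMSO-only (0%) and 10 μM Ref-1a (100%) wells gives % activity, fitted by 4-parameter logistic or Excel to yield EC50 at 50%. Reporter line: NUGC-3 with p53 response element-luc2P, compound-treated 6 h at 37 °C.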

[2] = biological target: T1, His-p53 Y220C (94-294) protein (Homo sapiens, UniProt P04637, Y220C); assay: In vitro DNA binding assay (HTRF); format: biochemical; details: % activation normalized to 2 μM Ref-1a high control
T1 construct: His-p53 Y220C (94-294) protein

NUGC4 (P53 WT) = assay: Cell viability assay (CellTiter-Glo, 6 days), NUGC4; format: cell-based; details: cell viability, 6 days, CellTiter-Glo, read-out: NUGC4 (P53 WT) IC50
Summary of the method: (§1)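 After a 6-day compound exposure following overnight plating, ATP luminescence (CellTiter-Glo) gave percent viability relative to DMSO-treated cells and cell-free medium controls. IC50 = concentration at 50% viability, from 4-parameter logistic or Excel fit.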

NUGC3 (P53 Y220C) = assay: Cell viability assay (CellTiter-Glo, 6 days), NUGC3; format: cell-based; details: cell viability, 6 days, CellTiter-Glo, read-out: NUGC3 (P53 Y220C) IC50
Summary of the method: as §1

Structure (SMILES): COc1cc(P(C)(C)=O)ccc1NCC#Cc1sc2c(N[C@@H]3CCN(C4CCOC4)C[C@@H]3F)cccc2c1CC(F)(F)F (stereo partly drawn) [Example 157, (4-((3-(7-(((3S,4R)-3-fluoro-1-(tetrahydrofuran-3-yl)piperidin-4-yl)amino)-3-(2,2,2-trifluoroethyl)benzo[b]thiophen-2-yl)prop-2-yn-1-yl)amino)-3-methoxyphenyl)dimethylphosphine oxide]
EC50 ([1]; Homo sapiens, NUGC-3): 110 nM
EC50 [2]: 68 nM
IC50 (NUGC4 (P53 WT); Homo sapiens, NUGC-4, 144 h): 4840 nM
IC50 (NUGC3 (P53 Y220C); Homo sapiens, NUGC-3, 144 h): 530 nM

Structure (SMILES): COCCOCCNC(=O)c1ccc(NCC#Cc2sc3c(N[C@@H]4CCN(C)C[C@@H]4F)cccc3c2CC(F)(F)F)c(OC)c1 (racemic) [Example 96, 4-((3-(7-(((Z)-3-fluoro-1-methylpiperidin-4-yl)amino)-3-(2,2,2-trifluoroethyl)benzo[b]thiophen-2-yl)prop-2-yn-1-yl)amino)-3-methoxy-N-(2-(2-methoxyethoxy)ethyl)benzamide]
EC50 ([1]; Homo sapiens, NUGC-3): 130 nM
EC50 [2]: 103 nM
IC50 (NUGC4 (P53 WT); Homo sapiens, NUGC-4, 144 h): 9930 nM
IC50 (NUGC3 (P53 Y220C); Homo sapiens, NUGC-3, 144 h): 1680 nM

Structure (SMILES): CN1CC[C@@H](Nc2cccc3c(CC(F)(F)F)c(C#CCNc4ccc(P(C)(C)=O)cc4OC(F)(F)F)sc23)[C@@H](F)C1 [Example 138, (4-((3-(7-(((3S,4R)-3-fluoro-1-methylpiperidin-4-yl)amino)-3-(2,2,2-trifluoroethyl)benzo[b]thiophen-2-yl)prop-2-yn-1-yl)amino)-3-(trifluoromethoxy)phenyl)dimethylphosphine oxide]
EC50 ([1]; Homo sapiens, NUGC-3, 6 h): 70 nM
EC50 [2]: 34 nM
IC50 (NUGC4 (P53 WT); Homo sapiens, NUGC-4, 144 h): 11100 nM
IC50 (NUGC3 (P53 Y220C); Homo sapiens, NUGC-3, 144 h): 880 nM

Structure (SMILES): CCN1CC[C@H](Nc2cccc3c(CC(F)(F)F)c(C#CCNc4ccc(P(C)(C)=O)cc4OC)sc23)[C@H](F)C1 [Example 136, (4-((3-(7-(((3R,4S)-1-ethyl-3-fluoropiperidin-4-yl)amino)-3-(2,2,2-trifluoroethyl)benzo[b]thiophen-2-yl)prop-2-yn-1-yl)amino)-3-methoxyphenyl)dimethylphosphine oxide]
EC50 ([1]; Homo sapiens, NUGC-3, 6 h): 240 nM
EC50 [2]: 46 nM
IC50 (NUGC4 (P53 WT); Homo sapiens, NUGC-4, 144 h): 4880 nM
IC50 (NUGC3 (P53 Y220C); Homo sapiens, NUGC-3, 144 h): 1630 nM

Structure (SMILES): COc1cc(P(C)(C)=O)ccc1NCC#Cc1sc2c(NC3CCN(C4CCOCC4)CC3)cccc2c1CC(F)(F)F [Example 154, (3-methoxy-4-((3-(7-((1-(tetrahydro-2H-pyran-4-yl)piperidin-4-yl)amino)-3-(2,2,2-trifluoroethyl)benzo[b]thiophen-2-yl)prop-2-yn-1-yl)amino)phenyl)dimethylphosphine oxide]
EC50 ([1]; Homo sapiens, NUGC-3): 410 nM
EC50 [2]: 67 nM
IC50 (NUGC4 (P53 WT); Homo sapiens, NUGC-4, 144 h): 4190 nM
IC50 (NUGC3 (P53 Y220C); Homo sapiens, NUGC-3, 144 h): 1890 nM

Structure (SMILES): COc1cc(P(C)(C)=O)ccc1NCC#Cc1sc2c(NC3C(C)CN(C)CC3C)cccc2c1CC(F)(F)F (stereo not drawn) [Example 131, (3-methoxy-4-((3-(3-(2,2,2-trifluoroethyl)-7-(((Z)-1,3,5-trimethylpiperidin-4-yl)amino)benzo[b]thiophen-2-yl)prop-2-yn-1-yl)amino)phenyl)dimethylphosphine oxide]
EC50 ([1]; Homo sapiens, NUGC-3): 70 nM
EC50 [2]: 33 nM
IC50 (NUGC4 (P53 WT); Homo sapiens, NUGC-4, 144 h): 2540 nM
IC50 (NUGC3 (P53 Y220C); Homo sapiens, NUGC-3, 144 h): 660 nM

Structure (SMILES): COc1cc(P(C)(C)=O)ccc1NCC#Cc1sc2c(N[C@H]3CCN(C)C[C@H]3F)cccc2c1CC(F)(F)F [Example 114, (4-((3-(7-(((3R,4S)-3-fluoro-1-methylpiperidin-4-yl)amino)-3-(2,2,2-trifluoroethyl)benzo[b]thiophen-2-yl)prop-2-yn-1-yl)amino)-3-methoxyphenyl)dimethylphosphine oxide]
EC50 ([1]; Homo sapiens, NUGC-3, 6 h): 120 nM
EC50 [2]: 57 nM
IC50 (NUGC4 (P53 WT); Homo sapiens, NUGC-4, 144 h): 10500 nM
IC50 (NUGC3 (P53 Y220C); Homo sapiens, NUGC-3, 144 h): 1240 nM

Structure (SMILES): COc1cc(P(C)(C)=O)ccc1NCC#Cc1sc2c(N[C@@H]3CCN(C)C[C@@H]3Cl)cccc2c1CC(F)(F)F [Example 158, (3S,4R)-3-chloro-N-[2-[3-(4-dimethylphosphoryl-2-methoxy-anilino)prop-1-ynyl]-3-(2,2,2-trifluoroethyl)benzothiophen-7-yl]-1-methyl-piperidin-4-amine]
EC50 ([1]; Homo sapiens, NUGC-3, 6 h): 90 nM
EC50 [2]: 30 nM
IC50 (NUGC4 (P53 WT); Homo sapiens, NUGC-4, 144 h): 3950 nM
IC50 (NUGC3 (P53 Y220C); Homo sapiens, NUGC-3, 144 h): 370 nM

Structure (SMILES): COc1cc(P(C)(C)=O)ccc1NCC#Cc1sc2c(N[C@@H]3CCN(C4CCOCC4)C[C@@H]3F)cccc2c1CC(F)(F)F (racemic) [Example 73, (Z)-(4-((3-(7-((3-fluoro-1-(tetrahydro-2H-pyran-4-yl)piperidin-4-yl)amino)-3-(2,2,2-trifluoroethyl)benzo[b]thiophen-2-yl)prop-2-yn-1-yl)amino)-3-methoxyphenyl)dimethylphosphine oxide]
EC50 ([1]; Homo sapiens, NUGC-3): 130 nM
EC50 [2]: 70 nM
IC50 (NUGC4 (P53 WT); Homo sapiens, NUGC-4, 144 h): 3420 nM
IC50 (NUGC3 (P53 Y220C); Homo sapiens, NUGC-3, 144 h): 770 nM

Structure (SMILES): CNC(=O)c1ccc(NCC#Cc2cc3c(N[C@H]4CCN(C)C[C@H]4F)cccc3n2CC(F)(F)F)c(OC)c1 [Example 111, 4-((3-(4-(((3R,4S)-3-fluoro-1-methylpiperidin-4-yl)amino)-1-(2,2,2-trifluoroethyl)-1H-indol-2-yl)prop-2-yn-1-yl)amino)-3-methoxy-N-methylbenzamide]
EC50 ([1]; Homo sapiens, NUGC-3, 6 h): 160 nM
EC50 [2]: 101 nM
IC50 (NUGC4 (P53 WT); Homo sapiens, NUGC-4, 144 h): 13100 nM
IC50 (NUGC3 (P53 Y220C); Homo sapiens, NUGC-3, 144 h): 1840 nM

Structure (SMILES): CN1CC[C@@H](Nc2cccc3c(CC(F)(F)F)c(C#CCOc4ccc(P(C)(C)=O)cc4C(N)=O)sc23)[C@@H](F)C1 [Example 165, 5-(dimethylphosphoryl)-2-((3-(7-(((3S,4R)-3-fluoro-1-methylpiperidin-4-yl)amino)-3-(2,2,2-trifluoroethyl)benzo[b]thiophen-2-yl)prop-2-yn-1-yl)oxy)benzamide]
EC50 ([1]; Homo sapiens, NUGC-3): 4220 nM
EC50 [2]: 48 nM
IC50 (NUGC4 (P53 WT); Homo sapiens, NUGC-4, 144 h): > 50000 nM
IC50 (NUGC3 (P53 Y220C); Homo sapiens, NUGC-3, 144 h): 20500 nM

Structure (SMILES): COc1cc(P(C)(C)=O)ccc1NCC#Cc1sc2c(N[C@@H]3CCN(C)C[C@@H]3C)cccc2c1CC(F)(F)F [Example 126, (4-((3-(7-(((3S,4R)-1,3-dimethylpiperidin-4-yl)amino)-3-(2,2,2-trifluoroethyl)benzo[b]thiophen-2-yl)prop-2-yn-1-yl)amino)-3-methoxyphenyl)dimethylphosphine oxide]
EC50 ([1]; Homo sapiens, NUGC-3, 6 h): 80 nM
EC50 [2]: 36 nM
IC50 (NUGC4 (P53 WT); Homo sapiens, NUGC-4, 144 h): 2740 nM
IC50 (NUGC3 (P53 Y220C); Homo sapiens, NUGC-3, 144 h): 630 nM

The next lines start with results.

EC50 [2]: 43 nM
Structure (SMILES): CN1CC[C@@H](Nc2cccc3c(CC(F)(F)F)c(C#CCNc4ccc(P(C)(C)=O)c5ccoc45)sc23)[C@@H](F)C1 [Example 198, (7-((3-(7-(((3S,4R)-3-fluoro-1-methylpiperidin-4-yl)amino)-3-(2,2,2-trifluoroethyl)benzo[b]thiophen-2-yl)prop-2-yn-1-yl)amino)benzofuran-4-yl)dimethylphosphine oxide]
EC50 ([1]; Homo sapiens, NUGC-3): 200 nM
IC50 (NUGC4 (P53 WT); Homo sapiens, NUGC-4, 144 h): 5100 nM
IC50 (NUGC3 (P53 Y220C); Homo sapiens, NUGC-3, 144 h): 260 nM

EC50 [2]: 35 nM
Structure (SMILES): CN1CC[C@@H](Nc2cccc3c(CC(F)(F)F)c(C#CCNc4ccc(P(C)(C)=O)cc4OC4CC4)sc23)[C@@H](F)C1 [Example 150, (3-cyclopropoxy-4-((3-(7-(((3S,4R)-3-fluoro-1-methylpiperidin-4-yl)amino)-3-(2,2,2-trifluoroethyl)benzo[b]thiophen-2-yl)prop-2-yn-1-yl)amino)phenyl)dimethylphosphine oxide]
EC50 ([1]; Homo sapiens, NUGC-3): 80 nM
IC50 (NUGC4 (P53 WT); Homo sapiens, NUGC-4, 144 h): 9920 nM
IC50 (NUGC3 (P53 Y220C); Homo sapiens, NUGC-3, 144 h): 390 nM

EC50 [2]: 31 nM
Structure (SMILES): COc1nc(P(C)(C)=O)ccc1NCC#Cc1sc2c(N[C@@H]3CCN(C)C[C@@H]3F)cccc2c1CC(F)(F)F [Example 153, (5-((3-(7-(((3S,4R)-3-fluoro-1-methylpiperidin-4-yl)amino)-3-(2,2,2-trifluoroethyl)benzo[b]thiophen-2-yl)prop-2-yn-1-yl)amino)-6-methoxypyridin-2-yl)dimethylphosphine oxide]
EC50 ([1]; Homo sapiens, NUGC-3): 100 nM
IC50 (NUGC4 (P53 WT); Homo sapiens, NUGC-4, 144 h): 4070 nM
IC50 (NUGC3 (P53 Y220C); Homo sapiens, NUGC-3, 144 h): 370 nM

EC50 [2]: 33 nM
Structure (SMILES): CNC(=O)c1cc(NCC#Cc2sc3c(NC4CCN(C)CC4F)cccc3c2CC(F)(F)F)c(OC)cc1P(C)(C)=O (racemic) [Example 109, 2-dimethylphosphoryl-5-[3-[7-[((Z)-3-fluoro-1-methyl-4-piperidyl)amino]-3-(2,2,2-trifluoroethyl)benzothiophen-2-yl]prop-2-ynylamino]-4-methoxy-N-methyl-benzamide]
EC50 ([1]; Homo sapiens, NUGC-3): 120 nM
IC50 (NUGC4 (P53 WT); Homo sapiens, NUGC-4, 144 h): 47700 nM
IC50 (NUGC3 (P53 Y220C); Homo sapiens, NUGC-3, 144 h): 1190 nM

EC50 [2]: 50 nM
Structure (SMILES): CN1CC[C@@H](Nc2cccc3c(CC(F)(F)F)c(C#CCNc4ccc(P(C)(C)=O)c5c4OCO5)sc23)[C@@H](F)C1 [Example 163, (7-((3-(7-(((3S,4R)-3-fluoro-1-methylpiperidin-4-yl)amino)-3-(2,2,2-trifluoroethyl)benzo[b]thiophen-2-yl)prop-2-yn-1-yl)amino)benzo[d][1,3]dioxol-4-yl)dimethylphosphine oxide]
EC50 ([1]; Homo sapiens, NUGC-3): 180 nM
IC50 (NUGC4 (P53 WT); Homo sapiens, NUGC-4, 144 h): 3820 nM
IC50 (NUGC3 (P53 Y220C); Homo sapiens, NUGC-3, 144 h): 1210 nM

EC50 [2]: 64 nM
Structure (SMILES): CNC(=O)c1ccc(NCC#Cc2sc3c(NC4CCN(C)CC4F)cccc3c2CC(F)(F)F)c(OC)n1 (stereo not drawn) [Example 62, 5-((3-(7-(((Z)-3-fluoro-1-methylpiperidin-4-yl)amino)-3-(2,2,2-trifluoroethyl)benzo[b]thiophen-2-yl)prop-2-yn-1-yl)amino)-6-methoxy-N-methylpicolinamide]
EC50 [1]: 340 nM
IC50 (NUGC4 (P53 WT)): 3700 nM
IC50 (NUGC3 (P53 Y220C)): 1430 nM
